Experimental data: US20260306968A1, “METHOD FOR THE SEPARATION OF PHOSPHORUS STEREOISOMERS OF REMDESIVIR USING LIQUID-LIQUID CHROMATOGRAPHY” (ROTACHROM TECHNOLÓGIAI ZRT., priority 2023, published 2026)

What was measured:
[1] = Várnai et al., J. Pharm. Biomed. Anal., 2021; cited from earlier work
[2] = Dissolving ability of the preferred solvent systems for the remdesivir mixture; type: physicochemical
Description: The preferred solvent systems are characterized by a short settling time (less than 30 sec), a good dissolving ability (more than 20 mg racemic mixture of remdesivir can be dissolved in 1 mL of the solvent system), while from the toxicological aspect, their components can be categorized into class 3 and/or class 4 solvents classes.

| Structure (SMILES) | ionization constant (basic pka) [1] | amount that can be dissolved in 1 mL of the solvent system [2] |
| --- | --- | --- |
| CCC(CC)COC(=O)[C@H](C)N[P@](=O)(OC[C@H]1O[C@@](C#N)(c2ccc3c(N)ncnn23)[C@H](O)[C@@H]1O)Oc1ccccc1 [remdesivir] | 3.56 |  |
| CCC(CC)COC(=O)[C@H](C)NP(=O)(OC[C@H]1O[C@@](C#N)(c2ccc3c(N)ncnn23)[C@H](O)[C@@H]1O)Oc1ccccc1 (mixture of isomers) [racemic mixture of remdesivir] |  | more than 20 mg |
